Reference: PubChem BioAssay AID256 (DTP/NCI, 2004)
Several values for one entry are separate records, joined by “and”; a condition that tells them apart may be missing. Equal entries are not always repeated. Inconclusive results and toxic doses are left out. The calls were made as follows: active = survival T/C of 150% or more; inactive = T/C below 125% in these data.

Tested on: CD2F1 mice, L1210 leukemia ip, survival T/C
Test: NCI In Vivo Anticancer Drug Screen. Data for tumor model L1210 Leukemia (intraperitoneal) in CD2F1 (CDF1) mice
Details: higher = longer survival
Method in brief: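 Transplantable tumor in mice; compound-treated vs vehicle-treated groups. Read-out = treated/control ratio of the measured endpoint.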

[1] = endpoint: mean survival time, dose: 100.0 mg/kg/injection, schedule: Q01DX009 (ip), vehicle: saline with Tween-80
[2] = endpoint: mean survival time, dose: 200.0 mg/kg/injection, schedule: Q01DX009 (ip), vehicle: saline with Tween-80
[3] = endpoint: mean survival time, dose: 400.0 mg/kg/injection, schedule: Q01DX009 (ip), vehicle: saline with Tween-80
[4] = endpoint: mean survival time, dose: 12.5 mg/kg/injection, schedule: Q04DX003 (ip), vehicle: saline with Tween-80
[5] = endpoint: mean survival time, dose: 25.0 mg/kg/injection, schedule: Q04DX003 (ip), vehicle: saline with Tween-80
[6] = endpoint: mean survival time, dose: 100.0 mg/kg/injection, schedule: Q04DX003 (ip), vehicle: saline with Tween-80
[7] = endpoint: mean survival time, dose: 200.0 mg/kg/injection, schedule: Q04DX003 (ip), vehicle: saline with Tween-80
[8] = endpoint: mean survival time, dose: 400.0 mg/kg/injection, schedule: Q04DX003 (ip), vehicle: saline with Tween-80
[9] = endpoint: mean survival time, dose: 50.0 mg/kg/injection, schedule: Q01DX009 (ip), vehicle: saline with Tween-80
[10] = endpoint: median survival time, dose: 1.5 mg/kg/injection, schedule: Q01DX009 (ip), vehicle: Klucel (hydroxypropylcellulose) (HPC)
[11] = endpoint: median survival time, dose: 3.0 mg/kg/injection, schedule: Q01DX009 (ip), vehicle: Klucel (hydroxypropylcellulose) (HPC)

Measured: T/C

CS(=O)(=O)OCCNc1ccc([N+](=O)[O-])cc1
inactive: endpoint: mean survival time, dose: 8.0 mg/kg/injection, schedule: Q01DX001 (ip), vehicle: saline 100 % of control | endpoint: mean survival time, dose: 10.0 mg/kg/injection, schedule: Q01DX010 (ip), vehicle: saline 103 % of control | endpoint: mean survival time, dose: 16.0 mg/kg/injection, schedule: Q01DX001 (ip), vehicle: saline 95 % of control | endpoint: mean survival time, dose: 30.0 mg/kg/injection, schedule: Q01DX010 (ip), vehicle: saline 113 % of control | endpoint: mean survival time, dose: 32.0 mg/kg/injection, schedule: Q01DX001 (ip), vehicle: saline 98 % of control | endpoint: mean survival time, dose: 64.0 mg/kg/injection, schedule: Q01DX001 (ip), vehicle: saline 90 % of control and 100 % of control | endpoint: mean survival time, dose: 100.0 mg/kg/injection, schedule: Q01DX010 (ip), vehicle: saline 119 % of control | endpoint: mean survival time, dose: 128.0 mg/kg/injection, schedule: Q01DX001 (ip), vehicle: saline 96 % of control | endpoint: mean survival time, dose: 256.0 mg/kg/injection, schedule: Q01DX001 (ip), vehicle: saline 96 % of control | endpoint: mean survival time, dose: 300.0 mg/kg/injection, schedule: Q01DX010 (ip), vehicle: saline 97 % of control

COC(=O)C(Cl)c1ccccc1 (stereo unspecified)
inactive: [1] 95 % of control | [2] 100 % of control | [3] 97 % of control

CCCCCCCCCCCC[n+]1cccc2ccccc21
inactive: endpoint: mean survival time, dose: 0.35 mg/kg/injection, schedule: Q01DX009 (ip), vehicle: saline 106 % of control | endpoint: mean survival time, dose: 0.7 mg/kg/injection, schedule: Q01DX009 (ip), vehicle: saline 111 % of control | endpoint: mean survival time, dose: 1.4 mg/kg/injection, schedule: Q01DX009 (ip), vehicle: saline 117 % of control

CC(=O)C1CCC2C3CC=C4CC(n5c(=O)cc[nH]c5=O)CCC4(C)C3CCC12C (stereo unspecified)
inactive: endpoint: mean survival time, dose: 12.5 mg/kg/injection, schedule: Q04DX003 (ip), vehicle: Klucel (hydroxypropylcellulose) (HPC) 97 % of control | endpoint: mean survival time, dose: 25.0 mg/kg/injection, schedule: Q04DX003 (ip), vehicle: Klucel (hydroxypropylcellulose) (HPC) 98 % of control | endpoint: mean survival time, dose: 50.0 mg/kg/injection, schedule: Q04DX003 (ip), vehicle: Klucel (hydroxypropylcellulose) (HPC) 101 % of control and 103 % of control | endpoint: mean survival time, dose: 100.0 mg/kg/injection, schedule: Q04DX003 (ip), vehicle: Klucel (hydroxypropylcellulose) (HPC) 92 % of control and 101 % of control | endpoint: mean survival time, dose: 200.0 mg/kg/injection, schedule: Q04DX003 (ip), vehicle: Klucel (hydroxypropylcellulose) (HPC) 95 % of control | endpoint: mean survival time, dose: 400.0 mg/kg/injection, schedule: Q04DX003 (ip), vehicle: Klucel (hydroxypropylcellulose) (HPC) 90 % of control

O=C1NC(=O)c2cc(C(F)(F)F)ccc21
inactive: endpoint: mean survival time, dose: 6.25 mg/kg/injection, schedule: Q01DX009 (ip), vehicle: saline with Tween-80 95 % of control | endpoint: mean survival time, dose: 12.5 mg/kg/injection, schedule: Q01DX009 (ip), vehicle: saline with Tween-80 89 % of control | [4] 101 % of control | [5] 100 % of control

O=Cc1cc(=O)n2c3c(cccc13)CCC2
inactive: endpoint: mean survival time, dose: 100.0 mg/kg/injection, schedule: Q04DX003 (ip), vehicle: saline 98 % of control | endpoint: mean survival time, dose: 200.0 mg/kg/injection, schedule: Q04DX003 (ip), vehicle: saline 98 % of control

O=C(O)/C=C\C(=O)Nc1ccccc1
inactive: [1] 93 % of control | [6] 109 % of control | [2] 96 % of control | [7] 101 % of control | [3] 96 % of control | [8] 97 % of control

O=C1CCC2(CCCCC2)N1
inactive: endpoint: mean survival time, dose: 1.25 mg/kg/injection, schedule: Q01DX009 (ip), vehicle: saline 107 % of control | endpoint: mean survival time, dose: 2.5 mg/kg/injection, schedule: Q01DX009 (ip), vehicle: saline 107 % of control | endpoint: mean survival time, dose: 3.13 mg/kg/injection, schedule: Q01DX009 (ip), vehicle: saline 96 % of control | endpoint: mean survival time, dose: 5.0 mg/kg/injection, schedule: Q01DX009 (ip), vehicle: saline 103 % of control | endpoint: mean survival time, dose: 6.25 mg/kg/injection, schedule: Q01DX009 (ip), vehicle: saline 101 % of control | endpoint: mean survival time, dose: 12.5 mg/kg/injection, schedule: Q01DX009 (ip), vehicle: saline 98 % of control and 101 % of control

N#Cc1ncc(Cl)cc1[N+](=O)[O-]
inactive: [4] 101 % of control | [5] 101 % of control | endpoint: mean survival time, dose: 50.0 mg/kg/injection, schedule: Q04DX003 (ip), vehicle: saline with Tween-80 101 % of control

COc1ccc(OCCOC(=O)Nc2c(Cl)cccc2Cl)cc1
inactive: [9] 98 % of control | [1] 94 % of control | [2] 94 % of control

COC(=O)N1c2ccc(OC)cc2C=CC1C#N (stereo unspecified)
inactive: [1] 94 % of control | [6] 96 % of control | [2] 95 % of control | [7] 102 % of control | [3] 103 % of control | [8] 94 % of control

OCCNCCO
inactive: [1] 93 % of control | [6] 97 % of control | [2] 93 % of control | [7] 103 % of control | [3] 96 % of control | [8] 107 % of control

COc1ccc(OC)c(NC(=O)c2cccc([N+](=O)[O-])c2)c1
inactive: [1] 90 % of control and 103 % of control | [2] 92 % of control and 93 % of control | [3] 89 % of control and 95 % of control

CCN1CCCC(Nc2nc(Nc3ccc(Cl)c(Cl)c3)nc3ccc(Cl)cc23)C1 (stereo unspecified)
inactive: [6] 89 % of control | [7] 94 % of control

N#Cc1cn(C2OC(CO)C(O)C2O)c2ncn3ncnc3c12 (stereo unspecified)
inactive: endpoint: mean survival time, dose: 3.13 mg/kg/injection, schedule: Q01DX005 (ip), vehicle: water 102 % of control | endpoint: mean survival time, dose: 6.25 mg/kg/injection, schedule: Q01DX005 (ip), vehicle: water 102 % of control | endpoint: mean survival time, dose: 12.5 mg/kg/injection, schedule: Q01DX005 (ip), vehicle: distilled water + Tween-80 122 % of control | endpoint: mean survival time, dose: 12.5 mg/kg/injection, schedule: Q01DX005 (ip), vehicle: water 112 % of control | endpoint: mean survival time, dose: 25.0 mg/kg/injection, schedule: Q01DX005 (ip), vehicle: distilled water + Tween-80 112 % of control | endpoint: mean survival time, dose: 25.0 mg/kg/injection, schedule: Q01DX005 (ip), vehicle: water 120 % of control | endpoint: mean survival time, dose: 50.0 mg/kg/injection, schedule: Q01DX005 (ip), vehicle: distilled water + Tween-80 116 % of control | endpoint: mean survival time, dose: 100.0 mg/kg/injection, schedule: Q01DX005 (ip), vehicle: distilled water + Tween-80 106 % of control

COc1ccc(NC(=O)C(Cl)Cl)ccc1=O
inactive: [1] 96 % of control | [6] 97 % of control | [2] 95 % of control | [7] 92 % of control | [8] 98 % of control

CCCCCCC(O)C/C=C\CCCCCCCC(=O)O (stereo unspecified)
inactive: endpoint: mean survival time, dose: 50.0 mg/kg/injection, schedule: Q04DX002 (ip), vehicle: saline 86 % of control | endpoint: mean survival time, dose: 100.0 mg/kg/injection, schedule: Q04DX002 (ip), vehicle: saline 90 % of control

CCOC(=O)C12CC=CC(CCC1)/C2=N\Nc1ccccc1 (stereo unspecified)
inactive: [1] 108 % of control | [6] 105 % of control | [2] 103 % of control | [7] 103 % of control | [3] 103 % of control | [8] 92 % of control

CCS/C(SC)=C(/c1ccccc1)[P+](c1ccccc1)(c1ccccc1)c1ccccc1
inactive: [10] 111 % of control | [11] 114 % of control

CCCNC(=O)C1C2CCC(CC2)C1C(=O)NCCC (stereo unspecified)
inactive: [6] 98 % of control | [7] 98 % of control | [8] 95 % of control

O=C1CSCc2c1ccc1ccccc21
inactive: [1] 98 % of control | [2] 95 % of control | [3] 96 % of control

CN=C(NC)c1ccc(NC(=O)/C=C\c2ccc(/C=C/C(=O)Nc3ccc(C(=NC)NC)cc3)cc2)cc1
active: endpoint: median survival time, dose: 3.12 mg/kg/injection, schedule: Q01DX009 (ip), vehicle: Klucel (hydroxypropylcellulose) (HPC) 151 % of control | endpoint: median survival time, dose: 6.0 mg/kg/injection, schedule: Q01DX009 (ip), vehicle: Klucel (hydroxypropylcellulose) (HPC) 181 % of control | endpoint: median survival time, dose: 6.25 mg/kg/injection, schedule: Q01DX009 (ip), vehicle: Klucel (hydroxypropylcellulose) (HPC) 186 % of control
inactive: [10] 112 % of control | [11] 124 % of control | endpoint: median survival time, dose: 12.0 mg/kg/injection, schedule: Q01DX009 (ip), vehicle: Klucel (hydroxypropylcellulose) (HPC) 124 % of control | endpoint: median survival time, dose: 12.5 mg/kg/injection, schedule: Q01DX009 (ip), vehicle: Klucel (hydroxypropylcellulose) (HPC) 124 % of control

S=P(Cc1ccccc1)(c1ccccc1)c1ccccc1
inactive: [9] 89 % of control | [1] 90 % of control | [6] 88 % of control | [7] 86 % of control

CCN(CC)CCNc1c2ccc(Cl)cc2nc2c1c(C)nn2C
inactive: [6] 95 % of control | [7] 100 % of control | [8] 100 % of control
